Reference: patent US20050118564A1, “Methods and compositions for identification and therapeutic use of genes involved in vascular and proliferative diseases” (priority 2002, published 2005)

Tests used:
Assay type in all cases: cell-based
[1] = system: Human aortic endothelial cells (HAEC); assay: MCP-1 secretion by human aortic endothelial cells exposed to disease stimuli (ELISA); conditions: 16 hrs, stimulus alone: 1 ng/ml TNF-α, 1 nM insulin or 100 μg/ml glycated HSA
Description: (§1) Human aortic endothelial cells (HAEC) were grown with culture medium (Basal medium from Clonetics) containing 0.2% albumin with or without 1 ng/ml TNF-α or 100 μg/ml glycated-human serum albumin (HAS) or 1 nM insulin for 16 hrs. Media were collected and the amounts of […] (DuoSet ELISA development kit—R&D Systems) and MCP-1 (Quantiline Human MCP-1 kit—R&D Systems) were measured. VCAM-1 expression was measured by incubating […] with a polyclonal goat anti-human VCAM-1 antibody (R&D Systems, 1:1000 dilution) followed by development with a rabbit anti-goat IgG-conjugated with horseradish peroxidase (HRP).

Smooth muscle cells [2] = assay: MCP-1 secretion by smooth muscle cells exposed to disease stimuli; conditions: 1 ng/ml TNF-α, 1 nM insulin, alone or together
[3] = system: Human aortic endothelial cells (HAEC); assay: VCAM-1 expression in human aortic endothelial cells exposed to disease stimuli; conditions: 16 hrs, 1 ng/ml TNF-α, 1 nM insulin, alone or together
Description: as §1

Smooth muscle cells [4] = assay: IL-6 secretion by smooth muscle cells exposed to disease stimuli; conditions: 1 ng/ml TNF-α, 1 nM insulin, alone or together
[5] = system: Endothelial and smooth muscle cells grown together; assay: IL-6 expression in co-cultures of endothelial and smooth muscle cells; conditions: endothelial and smooth muscle cells mixed (1:1, 1:2, 1:4) or layered; TNFα 1 ng/ml
Description: Endothelial and smooth muscle cells were grown together in culture media (Basal medium from Clonetics) containing 0.2% albumin. The cells had either nothing added, 1ng/ml TNFα, 1 nM insulin or TNFα and insulin. The media were collected and the amount of IL-6 and MCP-1 was measured.

| Substance | increase in MCP-1 secretion [1] | induction of MCP-1 expression (Smooth muscle cells [2]) | effect on VCAM-1 gene expression [3] | induction of IL-6 expression (Smooth muscle cells [4]) | stimulus-induced IL-6 expression in co-culture versus cells cultured separately [5] |
| --- | --- | --- | --- | --- | --- |
| Insulin: hormone used as vascular disease stimulus, 1 nM | 40% | only moderate induction | no effect | only moderate induction |  |
| TNF-α | about 400% | only moderate induction | 2.8 fold | only moderate induction | greatly enhanced |
| interleukin-1: cytokine used as disease stimulus in co-cultures (FIG. 8: IL-1β) |  |  |  |  | neither interleukin-1 nor glycated albumin/advanced glycation end products (AGE) showed enhanced induction |
